The results in this text go back to patent publication US20240109853A1 (Shanghai Yao Yuan Biotechnology Co., Ltd., priority 2020, published 2024).

One assay concerns the target ALPK1 (Homo sapiens (Human), UniProt Q96QP1). The assay can be described thus: ALPK1 in vitro kinase assay (HTRF of TIFA phosphorylation). It counts as biochemical. A general note: TR-FRET usually uses a lanthanide donor and a delayed reading to cut background.
A further assay deals with hALPK1-V1092A (Homo sapiens (Human), UniProt Q96QP1, V1092A). The assay can be described thus: cell-based.
Sequence of hALPK1-V1092A (Q96QP1 whole entry V1092A): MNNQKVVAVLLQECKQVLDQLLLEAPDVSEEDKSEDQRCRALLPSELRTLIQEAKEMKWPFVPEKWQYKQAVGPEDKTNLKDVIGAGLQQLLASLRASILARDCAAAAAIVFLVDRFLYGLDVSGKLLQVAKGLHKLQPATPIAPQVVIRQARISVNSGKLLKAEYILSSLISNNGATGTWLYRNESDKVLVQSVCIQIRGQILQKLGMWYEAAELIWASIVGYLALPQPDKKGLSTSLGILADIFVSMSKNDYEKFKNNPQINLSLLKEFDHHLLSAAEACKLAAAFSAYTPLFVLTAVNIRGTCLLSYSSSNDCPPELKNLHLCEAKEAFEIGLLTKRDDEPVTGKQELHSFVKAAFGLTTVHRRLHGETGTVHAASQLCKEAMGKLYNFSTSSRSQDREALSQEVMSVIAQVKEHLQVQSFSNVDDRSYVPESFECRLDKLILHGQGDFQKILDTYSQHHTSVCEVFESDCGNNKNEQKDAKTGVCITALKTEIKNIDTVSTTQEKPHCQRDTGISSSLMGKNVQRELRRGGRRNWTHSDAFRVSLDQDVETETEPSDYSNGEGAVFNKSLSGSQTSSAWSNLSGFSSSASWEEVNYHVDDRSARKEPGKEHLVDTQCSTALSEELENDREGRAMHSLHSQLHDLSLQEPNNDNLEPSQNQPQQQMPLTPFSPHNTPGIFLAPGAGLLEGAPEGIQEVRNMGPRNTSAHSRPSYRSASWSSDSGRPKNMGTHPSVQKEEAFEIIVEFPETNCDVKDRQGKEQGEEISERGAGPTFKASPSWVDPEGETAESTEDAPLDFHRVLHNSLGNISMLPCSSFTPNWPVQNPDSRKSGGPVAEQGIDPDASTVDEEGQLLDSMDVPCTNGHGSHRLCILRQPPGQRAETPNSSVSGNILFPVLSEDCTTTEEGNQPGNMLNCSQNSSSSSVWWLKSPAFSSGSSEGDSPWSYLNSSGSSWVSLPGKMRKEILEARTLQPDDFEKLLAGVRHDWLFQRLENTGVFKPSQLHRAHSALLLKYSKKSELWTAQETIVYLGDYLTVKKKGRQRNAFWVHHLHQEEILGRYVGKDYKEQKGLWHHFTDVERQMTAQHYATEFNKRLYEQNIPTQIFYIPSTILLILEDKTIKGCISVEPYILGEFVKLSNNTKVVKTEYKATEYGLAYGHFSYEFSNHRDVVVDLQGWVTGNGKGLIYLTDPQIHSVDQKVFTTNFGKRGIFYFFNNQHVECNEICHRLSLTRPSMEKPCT
Assay [1] relates to ALPK1-dependent NFκB reporter gene activation in HEK293 cells stably expressing an NF-kB reporter (G9 cells). Kind of assay: NFκB gene reporter alkaline phosphatase assay. The class given is cell-based. Conditions: Homo sapiens, HEK293; read-out: NFkB assay IC50. A digest of the protocol: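 HEK293 G9 cells stably carrying an NF-kB alkaline phosphatase reporter were seeded at 10,000 cells/well in Freestyle 293 medium and attached overnight. They were pretreated with serially diluted compound for 30 min, then stimulated with D-glycero-D-manno-6-fluoro-heptose-1β-S-ADP. Reporter phosphatase was read with pNPP; IC50 from logistic fit.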

Where [2] appears, read: ALPK1 2 nM, TIFA substrate, ADP-Heptose activator, HTRF readout.

Read-outs that look alike come from different tables or passages of the source.

Sequence of ALPK1 (Q96QP1 whole entry): as the sequence (Q96QP1 whole entry V1092A) above, with A1092V counted along it
Experimental for hALPK1-V1092A: Accordingly, we used IL-8 secretion as an indicator of activated ALPK1 inhibition in cells expressing these mutations.
Transfection was performed according to manufacturer's protocols (Lipofectamine™ 3000, ThermoFisher). Transfected cells were selected, seeded onto 96-well plates and treated with serial dilutions of the test compounds for 6.5 hr. Following treatment, cell viability was determined using a luminescent cell viability assay (Cell Counting-Lite Assay or “CCL Assay” from Vazyme Biotech Co., Ltd.) and cell free supernatants were collected and analyzed for IL-8 protein by IL-8 ELISA as described above.
Fresh medium and compound were added at 18 hours. Cell viability and IL-8 secretion were determined 6 hours after the second addition of compound, using the CCL assay and IL-8 ELISA as described above.

As to `CC(c1ccccc1)(c1ccc(Cl)cc1)c1csc(NC(=O)c2c(F)cc(N3CCNCC3)cc2F)n1` (stereo not shown) [Example C046, N-(4-(1-(4-chlorophenyl)-1-phenylethyl)thiazol-2-yl)-2,6-difluoro-4-(piperazin-1-yl)benzamide], the values for the IC50 against ALPK1 (setting [2]) and at hALPK1-V1092A were 0.377 µM and 4.45 µM, respectively.
The like results for `C#CC(C)(c1ccc(OC)cc1)c1csc(NC(=O)c2c(F)cc(N3CCNCC3CO)cc2F)n1` (stereo not shown) [Example B100, 2,6-difluoro-4-[2-(hydroxymethyl)piperazin-1-yl]-N-[4-[1-(4-methoxyphenyl)-1-methyl-prop-2-ynyl]thiazol-2-yl]benzamide] were, in that order, 0.021 µM and 0.429 µM.
The like results for `C#C[C@](C)(c1ccc(Cl)cc1)c1csc(NC(=O)c2ccc(N3CCNCC3)cc2)n1` (stereo in doubt) [Example B068, N-(4-(2-(4-chlorophenyl)but-3-yn-2-yl)thiazol-2-yl)-4-(piperazin-1-yl)benzamide] were, in that order, 0.53 µM and 27.1 µM.
Taken in the same sequence, the figures for `C#C[C@](C)(c1ccc(C)cc1)c1csc(NC(=O)c2c(F)cc(N3CCNCC3)cc2F)n1` (stereo in doubt) [Example C040, 2,6-difluoro-N-[4-[1-methyl-1-(p-tolyl)prop-2-ynyl]thiazol-2-yl]-4-piperazin-1-yl-benzamide] were 0.029 µM and 0.068 µM.
Turning to `C#C[C@@](C)(c1ccc(Cl)cc1)c1csc(NC(=O)c2ccc(N3CCNCC3)cc2)n1` (stereo in doubt) [Example B067, N-(4-(2-(4-chlorophenyl)but-3-yn-2-yl)thiazol-2-yl)-4-(piperazin-1-yl)benzamide], the IC50 (usually the point on the concentration scale where inhibition reaches its midpoint) against ALPK1 (setting [2]) stood at 0.09 µM; on hALPK1-V1092A, 0.215 µM.
Taken in the same sequence, the figures for `C#CC(C)(c1ccc(F)cc1)c1csc(NC(=O)c2c(F)cc(N3CCNCC3CO)cc2F)n1` (stereo not shown) [Example B099, 2,6-difluoro-N-[4-[1-(4-fluorophenyl)-1-methyl-prop-2-ynyl]thiazol-2-yl]-4-[2-(hydroxymethyl)piperazin-1-yl]benzamide] were 0.03 µM and 0.427 µM.
The like results for `C#C[C@@](C)(c1ccc(C)cc1)c1csc(NC(=O)c2c(F)cc(N3CCNCC3)cc2F)n1` (stereo in doubt) [Example C041, 2,6-difluoro-N-[4-[1-methyl-1-(p-tolyl)prop-2-ynyl]thiazol-2-yl]-4-piperazin-1-yl-benzamide] were, in that order, 0.007 µM and 0.954 µM.
The like results for `CC(c1ccccc1)c1csc(NC(=O)c2c(F)cc(N3CCNCC3)cc2F)n1` (stereo not shown) [Example C002, 2,6-difluoro-N-(4-(1-phenylethyl)thiazol-2-yl)-4-(piperazin-1-yl)benzamide] were, in that order, 0.047 µM and 3.37 µM.
Turning to `COC[C@@](C)(c1ccccc1)c1csc(NC(=O)c2c(F)cc(N3CCNCC3)cc2F)n1` [Example C018, (S)-2,6-difluoro-N-(4-(1-methoxy-2-phenylpropan-2-yl)thiazol-2-yl)-4-(piperazin-1-yl)benzamide], the concentration for half-maximal inhibition (IC50) against ALPK1 (setting [2]) worked out at 0.036 µM; on hALPK1-V1092A, 1.92 µM.
The like results for `C#C[C@@](C)(c1ccc(OC)cc1)c1csc(NC(=O)c2c(F)cc(N3CCNCC3)cc2F)n1` (stereo in doubt) [Example C048, 2,6-difluoro-N-(4-(2-(4-methoxyphenyl)but-3-yn-2-yl)thiazol-2-yl)-4-(piperazin-1-yl)benzamide] were, in that order, 0.016 µM and 5.57 µM.
The like results for `CC#CC(C)(c1ccc(Cl)cc1)c1csc(NC(=O)c2c(F)cc(N3CCNCC3)cc2F)n1` (stereo not shown) [Example C039, N-(4-(2-(4-chlorophenyl)pent-3-yn-2-yl)thiazol-2-yl)-2,6-difluoro-4-(piperazin-1-yl)benzamide] were, in that order, 0.036 µM and 0.959 µM.
The like results for `C#C[C@@](C)(c1ccc(Cl)cc1)c1csc(NC(=O)c2c(F)cc(N3CCN(C)CC3)cc2F)n1` [Example C011, (S)-N-(4-(2-(4-chlorophenyl)but-3-yn-2-yl)thiazol-2-yl)-2,6-difluoro-4-(4-methylpiperazin-1-yl)benzamide] were, in that order, 0.018 µM and 0.353 µM.
As for `C#C[C@](C)(c1ccc(F)cc1)c1csc(NC(=O)c2c(F)cc(N3CCNCC3)cc2F)n1` (stereo in doubt) [Example C034, 2,6-difluoro-N-(4-(2-(4-fluorophenyl)but-3-yn-2-yl)thiazol-2-yl)-4-(piperazin-1-yl)benzamide], the values for the half-inhibitory concentration (IC50) against ALPK1 (setting [2]) and on hALPK1-V1092A were 0.04 µM and 0.277 µM, respectively.
For the compound `C#C[C@](C)(c1ccc(Cl)cc1)c1csc(NC(=O)c2c(F)ccc(N3CCNCC3)c2F)n1` (stereo in doubt) [Example B075, N-(4-(2-(4-chlorophenyl)but-3-yn-2-yl)thiazol-2-yl)-2,6-difluoro-3-(piperazin-1-yl)benzamide], the IC50 against ALPK1 (setting [2]) amounted to 0.308 µM; at hALPK1-V1092A it was 13 µM.
The like results for `C#C[C@@](C)(c1ccc(F)cc1)c1csc(NC(=O)c2c(F)cc(N3CCNCC3)cc2F)n1` (stereo in doubt) [Example C035, 2,6-difluoro-N-(4-(2-(4-fluorophenyl)but-3-yn-2-yl)thiazol-2-yl)-4-(piperazin-1-yl)benzamide] were, in that order, 0.019 µM and 0.067 µM.
Taken in the same sequence, the figures for `C#C[C@@](C)(c1ccc(Cl)c(F)c1)c1csc(NC(=O)c2c(F)cc(N3CCNCC3)cc2F)n1` (stereo in doubt) [Example C038, N-(4-(2-(4-chloro-3-fluorophenyl)but-3-yn-2-yl)thiazol-2-yl)-2,6-difluoro-4-(piperazin-1-yl)benzamide] were 0.017 µM and 0.352 µM.
Turning to `C#CC(C)(c1ccc(Cl)cc1)c1csc(NC(=O)NCCS(N)(=O)=O)n1` (stereo not shown) [Example A243, 2-(3-(4-(2-(4-chlorophenyl)but-3-yn-2-yl)thiazol-2-yl)ureido)ethane-1-sulfonamide], the half-maximal inhibitory concentration (IC50) against ALPK1 was found to be 0.023 µM; in assay [1] it was 0.59 µM.
Taken in the same sequence, the figures for `COc1ccc(C(C)(C)c2csc(NC(=O)NCc3cnc(N4CCNC(=O)C4)c(F)c3)n2)cc1` [Example A121, 1-((5-fluoro-6-(3-oxopiperaizn-1-yl)pyridin-3-yl)methyl)-3-(4-(2-(4-methoxyphenyl)propan-2-yl)thiazol-2-yl)urea] were 0.209 µM and 2.02 µM.
The like results for `COc1ccc(C(C)(C)c2csc(NC(=O)NCCCN3CCC(N(C)C)C3)n2)cc1` (stereo not shown) [Example A141, 1-(3-(3-(dimethylamino)pyrrolidin-1-yl)propyl)-3-(4-(2-(4-methoxyphenyl)propan-2-yl)thiazol-2-yl)urea] were, in that order, 0.228 µM and 4.22 µM.
For the compound `C#C[C@@](C)(c1ccc(Cl)cc1)c1csc(NC(=O)c2c(F)ccc(N3CCNCC3)c2F)n1` (stereo in doubt) [Example B076, N-(4-(2-(4-chlorophenyl)but-3-yn-2-yl)thiazol-2-yl)-2,6-difluoro-3-(piperazin-1-yl)benzamide], the 50% inhibitory concentration (IC50) worked out at 0.085 µM on ALPK1 (setting [2]) and 0.128 µM on hALPK1-V1092A.
For the compound `COc1ccc(C(C)(C)c2csc(NC(=O)NCCCS(=O)(=O)N3CCC(N)C3)n2)cc1` (stereo not shown) [Example A229, 1-(3-((3-aminopyrrolidin-1-yl)sulfonyl)propyl)-3-(4-(2-(4-methoxyphenyl)propan-2-yl)thiazol-2-yl)urea], the concentration for half-maximal inhibition (IC50) against ALPK1 was 0.169 µM; in assay [1], 2.27 µM.
For the compound `COc1ccc(C(C)(C)c2csc(NC(=O)NCc3ccc(NC4CCNCC4)cc3)n2)cc1` [Example A041, 1-(4-(2-(4-methoxyphenyl)propan-2-yl)thiazol-2-yl)-3-(4-(piperidin-4-ylamino)benzyl)urea], the IC50 stood at 0.023 µM against ALPK1 and 1.86 µM in assay [1].
The like results for `C#C[C@](C)(c1ccc(OC)cc1)c1csc(NC(=O)NCCO)n1` [Example A169, (R)-1-(2-hydroxyethyl)-3-(4-(2-(4-methoxyphenyl)but-3-yn-2-yl)thiazol-2-yl)urea] were, in that order, 0.023 µM and 1.67 µM.
The like results for `C#C[C@](C)(c1ccc(Cl)cc1)c1csc(NC(=O)NCCS(N)(=O)=O)n1` [Example A288, 2-(3-(4-(2-(4-chlorophenyl)but-3-yn-2-yl)thiazol-2-yl)ureido)ethanesulfona-mide] were, in that order, 0.27 µM and 1.21 µM.
Taken in the same sequence, the figures for `C#C[C@@](C)(c1ccc(OC)cc1)c1csc(NC(=O)N2CC(CO)C2)n1` [Example A256, (S)-3-(hydroxymethyl)-N-(4-(2-(4-methoxyphenyl)but-3-yn-2-yl)thiazol-2-yl)azetidine-1-carboxamide] were 0.273 µM and 14.3 µM.
For the compound `C#CC(C)(c1ccc(Br)cc1)c1csc(NC(=O)N2CC(CO)C2)n1` (stereo not shown) [Example A165, N-(4-(2-(4-bromophenyl)but-3-yn-2-yl)thiazol-2-yl)-3-(hydroxymethyl)azetidine-1-carboxamide], the IC50 was determined as 0.138 µM against ALPK1 and 0.73 µM in assay [1].
The like results for `C#CC(C)(c1ccc(Cl)cc1)c1csc(NC(=O)NCC(C)(C)O)n1` (stereo not shown) [Example A268, 1-(4-(2-(4-chlorophenyl)but-3-yn-2-yl)thiazol-2-yl)-3-(2-hydroxy-2-methylpropyl)urea] were, in that order, 0.218 µM and 1.31 µM.
Taken in the same sequence, the figures for `COc1ccc(C(C)(C)c2csc(NC(=O)NCc3cncnc3)n2)cc1` [Example A104, 1-(4-(2-(4-methoxyphenyl)propan-2-yl)thiazol-2-yl)-3-(pyrimidin-5-ylmethyl)urea] were 0.223 µM and 1.69 µM.
Taken in the same sequence, the figures for `C#C[C@@](C)(c1ccc(Cl)cc1)c1csc(NC(=O)NC(C)(C)CO)n1` (stereo in doubt) [Example A294, 1-(4-(2-(4-chlorophenyl)but-3-yn-2-yl)thiazol-2-yl)-3-(1-hydroxy-2-methylpropan-2-yl)urea] were 0.285 µM and 3.04 µM.
